Holding throughout (type): in vivo
In experiment [1] the test system is bean aphid (Aphis fabae Scop.). The experiment can be described thus: Bean Aphid Foliage Spray Test. Further details: key: A: excellent control; B: partial control; C: no control. To be noted: 500 ppm, 24 hour holding period. As to the method:
(§1) Suspensions of the test compounds were prepared by dissolving one gram of compound in 50 milliliters of acetone in which had been dissolved 0.1 gram (10 percent of the weight of compound) of an alkylphenoxy polyethoxyethanol surfactant, as an emulsifying or dispersing agent. The resulting solution was mixed into 150 milliliters of water to give roughly 200 milliliters of a suspension containing the compound in finely divided form. The thus-prepared stock suspension contained 0.5 percent by weight of compound. The test concentrations in parts per million by weight employed in the tests described hereinbelow were obtained by appropriate dilutions of the stock suspension with water. The test procedures were as follows:
Adults and nymphal stages of the bean aphid (Aphis fabae Scop.) reared on potted dwarf nasturtium plants at 65°-70° F. and 50-70 percent relative humidity, constituted the test insects. For testing purposes, the number of aphids per pot was standardized to 100-150 by trimming plants containing excess aphids.
The test compounds were formulated by diluting the stock suspension with water to give a suspension containing 500 parts of test compound per million parts of final formulation.
The potted plants (one pot per compound tested) infested with 100-150 aphids, were placed on a revolving turntable and sprayed with 100-110 milliliters of test compound formulation by use of a DeVilbiss spray gun set at 40 psig. air pressure. This application, which tested 25 seconds, was sufficient to wet the plants to run-off. As a control, 100-110 milliliters of a water-acetone-emulsifier solution containing no test compound were also sprayed on infested plants. After spraying, the pots were placed on their sides on a sheet of white standard mimeograph paper which had been previously ruled to facilitate counting. Temperature and humidity in the test room during the 24 hour holding period were 65°-70° F. and 50-70 percent, respectively. Aphids which fell onto the paper and were unable to remain standing after being uprighted were considered dead. Aphids remaining on the plants were observed closely for movement and those which were unable to move the length of the body upon stimulation by prodding were considered dead. Percent mortality was recorded for various concentration levels.
(§2) In these tests the pesticidal activity of the compounds against aphid, mite, Southern Armyworm, Bean Beetle and house fly was rated as follows: […]

For experiment [2], the system named is two-spotted mite (Tetranychus urticae Koch). The experiment can be described thus: Mite Foliage Spray Test. Set-up: key: A: excellent control; B: partial control; C: no control. To be noted: 500 ppm, six days. As to the method: as §1
Adults and nymphal stages of the two-spotted mite (Tetranychus urticae Koch), reared on Tendergreen bean plants at 80±5 percent relative humidity, were the test organisms. Infested leaves from a stock culture were placed on the primary leaves of two bean plants six to eight inches in height, growing in a two-and-a-half inch clay pot. 150-200 Mites, a sufficient number for testing, transferred from the excised leaves to the fresh plants in a period of twenty four hours. Following the twenty four hour transfer period, the excised leaves were removed from the infested plants. The test compounds were formulated by diluting the stock suspension with water to give a suspension containing 500 parts of test compound per million parts of final formulation. The potted plants (one pot per compound) were placed on a revolving turntable and sprayed with 100-110 milliliters of test compound formulation by use of a DeVilbiss spray gun set at 40 psig. air pressure. This application, which lasted 25 seconds, was sufficient to wet the plants to run-off. As a control, 100-110 milliliters of a water solution containing acetone and emulsifier in the same concentrations as the test compound formulation, but containing no test compound, were also sprayed on infested plants. The sprayed plants were held at 80±5 percent relative humidity for six days, after which a mortality count of motile forms was made. Microscopic examination for motile forms was made on the leaves of the test plants. Any individual which was capable of locomotion upon prodding was considered living.
as §2

Experiment [3] deals with southern armyworm (Prodenia eridania, (Cram.)). The experiment can be described thus: Southern Armyworm Leaf Spray Test. Set-up: key: A: excellent control; B: partial control; C: no control. Particulars: 500 ppm, three days. As to the method: as §1
Larvae of the southern armyworm (Prodenia eridania, (Cram.)), reared on Tendergreen bean plants at a temperature of 80±5° F. and a relative humidity of 50±5 percent, constituted the test insects.
The test compounds were formulated by diluting the stock suspension with water to give a suspension containing 500 parts of test compound per million parts of final formulation. Potted Tendergreen bean plants of standard height and age were placed on a revolving turntable and sprayed with 100-110 milliliters of test compound formulation by use of a DeVilbiss spray gun set at 10 psig air pressure. This application, which tested 25 seconds, was sufficient to wet plants to run-off. As a control, 100-110 milliliters of a water-acetone-emulsifier solution containing no test compound were also sprayed on infested plants. When dry, the paired leaves were separated and each one was placed in a 9 centimeter Petri dish lined with moistened filter paper. Five randomly selected larvae were introduced into each dish and the dishes were closed. The closed dishes were labeled and held at 80°-85° F. for three days. Although the larvae could easily consume the whole leaf within twenty-four hours, no more food was added. Larvae which were unable to move the length of the body, even upon stimulation by prodding, were considered dead. Percent mortality was recorded for various concentration levels.
as §2

In experiment [4] the test system is Mexican bean beetle (Epilachna varivestis, Muls.). The experiment can be described thus: Mexican Bean Beetle Leaf Spray Test. Further details: key: A: excellent control; B: partial control; C: no control. Particulars: 500 ppm, three days. As to the method:
as §1
Fourth instar larvae of the Mexican bean beetle (Epilachna varivestis, Muls.), reared on Tendergreen bean plants at a temperature of 80±5° F. and 50±5 percent relative humidity, were the test insects.
The test compounds were formulated by diluting the stock suspension with water to give a suspension containing 500 parts of test compound per million parts of final formulation. Potted Tendergreen bean plants of standard height and age were placed on a revolving turntable and sprayed with 100-110 milliliters of test compound formulation by use of a DeVilbiss spray gun set at 10 psig air pressure. The application, which lasted 25 seconds, was sufficient to wet plants to run-off. As a control, 100-110 milliliters of a water-acetone-emulsifier solution containing no test compound were also sprayed on infested plants. When dry, the paired leaves were separated and each was placed in a 9 centimeter Petri dish lined with moistened filter paper. Five randomly selected larvae were introduced into each dish, and the dishes were closed. The closed dishes were labeled and held at a temperature of 80±5° F. for three days. Although the larvae could easily consume the leaf within 24 to 48 hours, no more food was added. Larvae which were unable to move the length of the body, even upon stimulation, were considered dead.
as §2

The subject of experiment [5] is house flies (Musca domestica, L.). Briefly: Fly Bait Test. Further details: key: A: excellent control; B: partial control; C: no control. Particulars: 500 ppm in sugar solution, twenty four hours. As to the method: as §1
Four to six day old adult house flies (Musca domestica, L.) reared according to the specifications of the Chemical Specialities Manufacturing Association (Blue Book, McNair-Dorland Co., N.Y. 1954; pages 243-244, 261) under controlled conditions of 80±5° F. and 50±5 percent relative humidity, were the test insects. The flies were immobilized by anesthetizing with carbon dioxide and twenty five immobilized individuals,males and females, were transferred to a cage consisting of a standard food strainer about five inches in diameter which was inverted over a wrapping-paper-covered surface. The test compounds were formulated by diluting the stock suspension with a 10 percent (by weight) sugar solution to give a suspension containing 500 parts of test compound per million parts of final formulation, by weight. Ten milliliters of the test formulation were added to a souffle cup containing a one-inch square of an absorbent cotton pad. This bait cup was introduced and centered on the blotting paper under the food strainer prior to admitting the anesthetized flies. The caged flies were allowed to feed on the bait for twenty four hours, at a temperature of 80±5° F. and the relative humidity of 50±5 percent.
as §2

Experiment [6] has as its system root-knot nematode (Meloidogyne incognita var. acrita). The experiment can be described thus: Nematode Test. Set-up: key: 1: severe galling; equal to untreated control; 2: moderate galling; 3: light galling; 4: very light galling; 5: no galling. Particulars: 10 ml of 500 ppm formulation per jar (approx. 180 cc soil), cucumber indicator crop, approx. three weeks. As to the method: as §1
Infective migratory larvae of the root-knot nematode, (Meloidogyne incognita var. acrita) were reared in the greenhouse on roots of Rutgers variety tomato plant. Infected tomato plants were removed from the culture and the roots were chopped very finely. A small amount of inoculum from the roots was added to pint Mason jars containing approximately 180 cc of soil. The jars containing the inoculum and soil were capped and incubated for one week at room temperature. During this period eggs of the nematode hatched and the larvae forms migrated into the soil.
The test compounds were formulated by diluting the stock suspension with water to give a suspension containing 500 parts of test compound per million parts of final formulation. 10 milliliters of the test formulation was added to each of two jars for each dosage treated. As a control 10 milliliters of a water-acetone-emulsifier solution containing no test compound was also added to jars containing nematode larvae. The jars were capped and the contents thoroughly mixed on a kale mill for five minutes. The jars remained capped at room temperature for a period of 48 hours and the contents were then transferred to 3 inch pots. Subsequently, the pots were seeded to cucumber as an indicator crop and placed in the green house where they were cared for in the normal fashion for growing potted cucumber for approximately three weeks. These cucumber plants were then removed from the pots, the soil washed from the roots and the amount of galling visually rated.
The nematocidal toxicity has the following ratings;

This is an account of results in patent US4413007A, “Pesticidal symmetrical N-substituted bis-carbamoyloximino disulfide compounds” (priority 1978, dated 1983).

Each structure is given as a SMILES string.

Consider `CSC(C)(C)C=NOC(=O)N(C)SSN(C)C(=O)ON=CC(C)(C)SC` [N,N'-bis-[2-methylthio-2-methylpropionaldehyde O-(N-methylcarbamoyl)oxime]disulfide], for which, in experiment [1], the “Bean Aphid control rating” value is listed as “A”. Moreover, in experiment [2], the “2-Spotted Mite control rating” value is “A”. Further, the “Southern Armyworm control rating” value in experiment [3] is “A”. Further, the “Mexican Bean Beetle control rating” value in experiment [4] is “A”. Moreover, the House-Fly control rating result in experiment [5] was “A”. Also, the “Root-Knot Nematode galling rating” value in experiment [6] worked out at 5.
As to `CC1OCSC1=NOC(=O)N(C)SSN(C)C(=O)ON=C1SCOC1C` (stereo not drawn) [N,N'-bis-[5-Methyl-4-(O-(N-methylcarbamoyl)oximino)-1,3-oxathiolane]disulfide], the “Bean Aphid control rating” value in experiment [1] is reported as “A”. Also, the “2-Spotted Mite control rating” value in experiment [2] is “A”. In addition, the “Southern Armyworm control rating” value in experiment [3] is reported as “A”. In experiment [4], the “Mexican Bean Beetle control rating” value is given as “A”. The House-Fly control rating entry in experiment [5] is listed as “A”. Besides, the “Root-Knot Nematode galling rating” value in experiment [6] stood at 1.
